Data taken from ChEMBL document CHEMBL1201862, “PubChem BioAssay data set” (2004).
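Dose response: 5 concentrations. Exposure: 48 h. Format: 96-well plates. Endpoint: linear interpolation; highest concentration if not reached. At the GI50, growth is halved.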 Calls of active or inactive are those of the source. No stated cut-off is given here; in the data, active = GI50 up to about 1.1 µM and inactive = higher.

What was measured:
Experiment in all cases: inhibition of tumour cell growth, NCI panel, 48 h
[1] = system: KM12
[2] = system: SK-OV-3
[3] = system: SK-MEL-5
[4] = system: NCI-H226
[5] = system: SNB-19
[6] = system: CCRF-CEM
[7] = system: CAKI-1
[8] = system: UACC-257
[9] = system: SF-539
[10] = system: SN12C
[11] = system: SR
[12] = system: HT-29
[13] = system: HL-60
[14] = system: HOP-92
[15] = system: A549
[16] = system: SK-MEL-28
[17] = system: 786-0
[18] = system: PC-3
[19] = system: U-251
[20] = system: Malme-3M

Measured: GI50

CN(C)/C=C/c1nnnn1-c1ccc(I)cc1
inactive: [1] 18.5 µM | [2] 18.1 µM | [3] 16.6 µM | [4] 22.8 µM | [5] 20.3 µM | [6] 10.6 µM | [7] 22.3 µM | [8] 27 µM | [9] 19.5 µM | [10] 14.9 µM | [11] 16.4 µM | [12] 22.9 µM | [13] 6.21 µM | [14] 14.2 µM | [15] > 100 µM | [16] 26.7 µM | [17] 35.1 µM | [18] 16.6 µM | [19] 11.9 µM | [20] 21 µM

Nc1ccc(-c2nc3ccccc3s2)cc1
inactive: [1] 21.4 µM | [2] 45.5 µM | [3] 21.6 µM | [4] 25.3 µM | [5] 28.1 µM | [6] 14.6 µM | [7] 24.2 µM | [8] 22 µM | [9] 23 µM | [10] 19.1 µM | [11] 18.4 µM | [12] 19.4 µM | [13] 24.9 µM | [14] 11.4 µM | [15] 23 µM | [16] 17.1 µM | [17] 16.2 µM | [18] 14.9 µM | [19] 17.4 µM | [20] 17.6 µM

CC[C@@]12CCC(=S)N(CCSc3ccccc3)[C@@H]1c1c(n(S(=O)(=O)c3ccc(OC)cc3)c3ccccc13)CC2
inactive: [1] > 100 µM | [2] > 100 µM | [3] > 100 µM | [4] 68.1 µM | [5] 32.9 µM | [6] > 100 µM | [7] > 100 µM | [8] > 100 µM | [9] 88.1 µM | [10] > 100 µM | [11] > 100 µM | [12] > 100 µM | [13] > 100 µM | [14] 73.6 µM | [15] > 100 µM | [16] > 100 µM | [17] 63.1 µM | [18] > 100 µM | [19] > 100 µM | [20] > 100 µM

O=C(O)CCS/C(=C\C(SCCC(=O)O)c1ccc(Cl)cc1)c1ccc(Cl)cc1 (stereo not given)
inactive: [1] 25.6 µM | [2] > 100 µM | [3] 48.3 µM | [4] 69 µM | [5] 40.7 µM | [6] 30.1 µM | [7] 37.2 µM | [8] > 100 µM | [9] 37.2 µM | [10] 50 µM | [11] 29.4 µM | [12] 43.6 µM | [13] 36.7 µM | [14] 25.8 µM | [15] 57.1 µM | [16] 45.1 µM | [17] 78.9 µM | [18] 61 µM | [19] 33.5 µM | [20] 76.4 µM

CCCCCC(/C=C/[C@@H]1CC(=O)C[C@H]1O[Si](C)(C)C(C)(C)C)OCOCCOC (stereo not given in full)
inactive: [1] 3 µM | [2] 17 µM | [3] 3.33 µM | [4] 5.48 µM | [5] 4.52 µM | [6] > 100 µM | [7] 3.07 µM | [8] 3.68 µM | [9] 2.32 µM | [10] 8.43 µM | [11] 1.5 µM | [12] 3.48 µM | [13] > 100 µM | [14] 1.97 µM | [15] 9.55 µM | [16] 3.08 µM | [17] 3.74 µM | [18] 4.16 µM | [19] 2.52 µM | [20] 2.35 µM
